Data as given in ChEMBL document CHEMBL3797201, “Synthesis of N-1', N-3'-disubstituted spirohydantoins and their anticonvulsant activities in pilocarpine model of temporal lobe epilepsy” (Bioorg Med Chem Lett, 2016).
Activity calls are given as the source filed them. No cut-off for these calls is given here.

What was measured:
[1] = system: Rattus norvegicus; assay: Toxicity in pilocarpine-induced status epilepticus Sprague-Dawley rat model assessed as sedation at 100 mg/kg, ip administered 2 hrs prior to pilocarpine challenge; assay type: organism-based; conditions: in vivo
[2] = system: Rattus norvegicus; assay: Toxicity in pilocarpine-induced status epilepticus Sprague-Dawley rat model assessed as loss of righting reflex at 100 mg/kg, ip administered 2 hrs prior to pilocarpine challenge measured within 10 mins and upto 4 hrs; assay type: organism-based; conditions: in vivo
[3] = system: Rattus norvegicus; assay: Anticonvulsant activity in pilocarpine-induced status epilepticus Sprague-Dawley rat model at 100 mg/kg, ip administered 2 hrs prior to pilocarpine challenge; assay type: functional, organism-based
[4] = system: Rattus norvegicus; assay: Anticonvulsant activity in pilocarpine-induced status epilepticus Sprague-Dawley rat model assessed as recovered from seizure within 90 to 120 mins at 100 mg/kg, ip administered 2 hrs prior to pilocarpine challenge; assay type: functional, organism-based
[5] = system: Rattus norvegicus; assay: Anticonvulsant activity in pilocarpine-induced status epilepticus Sprague-Dawley rat model assessed as delay in motor seizure onset time at 100 mg/kg, ip administered 2 hrs prior to pilocarpine challenge; assay type: functional, organism-based
[6] = system: Rattus norvegicus; assay: Anticonvulsant activity in pilocarpine-induced status epilepticus Sprague-Dawley rat model assessed as motor seizure onset time at 100 mg/kg, ip administered 2 hrs prior to pilocarpine challenge (reference value: 6 mins); assay type: functional
[7] = system: Rattus norvegicus; assay: Anticonvulsant activity in pilocarpine-induced status epilepticus Sprague-Dawley rat model assessed as survival rate at 100 mg/kg, ip administered 2 hrs prior to pilocarpine challenge (reference value: 53%); assay type: functional
[8] = system: Rattus norvegicus; assay: Anticonvulsant activity in pilocarpine-induced status epilepticus Sprague-Dawley rat model assessed as decrease in progression of motor seizure at 100 mg/kg, ip administered 2 hrs prior to pilocarpine challenge; assay type: functional, organism-based
[9] = system: Rattus norvegicus; assay: Anticonvulsant activity in pilocarpine-induced status epilepticus Sprague-Dawley rat model assessed as recovered from pre-stage of motor seizue within 30 mins at 100 mg/kg, ip administered 2 hrs prior to pilocarpine challenge; assay type: functional, organism-based

## O=C1OC2(C(=O)N(c3ccccc3)C(=O)N2C2CC2)c2ccccc21 (racemic)
[1]
  Activity: Toxic
[2]
  Activity: Toxic

## CCN1C(=O)N(c2ccc([N+](=O)[O-])cc2)C(=O)C12OC(=O)c1ccccc12 (racemic)
[3]
  Activity: Active
[4]
  Activity: Active

## O=C1OC2(C(=O)N(c3ccc(Cl)cc3)C(=O)N2c2ccccc2)c2ccccc21 (racemic)
[5]
  Activity: Active

## CCCN1C(=O)N(c2ccc([N+](=O)[O-])cc2)C(=O)C12OC(=O)c1ccccc12 (racemic)
[3]
  Activity: Active
[5]
  Activity: Active
[4]
  Activity: Active

## O=C1OC2(C(=O)N(c3ccc([N+](=O)[O-])cc3)C(=O)N2c2ccccc2)c2ccccc21 (racemic)
[6]
  Time: 104 min

## O=C1OC2(C(=O)N(c3ccc([N+](=O)[O-])cc3)C(=O)N2C2CC2)c2ccccc21 (racemic)
[3]
  Activity: Active
[4]
  Activity: Active

## CCCN1C(=O)N(c2ccc(Cl)cc2)C(=O)C12OC(=O)c1ccccc12 (racemic)
[3]
  Activity: Active

## CCCN1C(=O)N(c2ccccc2CC)C(=O)C12OC(=O)c1ccccc12 (racemic)
[3]
  Activity: Active

## O=C1NC(=O)C(c2ccccc2)(c2ccccc2)N1 [PHENYTOIN]
[6]
  Time: 12 min
[7]
  survival at 100 mg/kg: 67%

## O=C1OC2(C(=O)N(c3ccc(Cl)cc3)C(=O)N2C2CC2)c2ccccc21 (racemic)
[3]
  Activity: Active

## CCN1C(=O)N(c2ccc(OC)cc2OC)C(=O)C12OC(=O)c1ccccc12 (racemic)
[3]
  Activity: Active
[5]
  Activity: Active
[4]
  Activity: Active
[8]
  Activity: Active
[9]
  Activity: Active

## CCCN1C(=O)N(c2ccccc2)C(=O)C12OC(=O)c1ccccc12 (racemic)
[1]
  Activity: Toxic
[2]
  Activity: Toxic

## CCCN1C(=O)N(c2ccc(CC)cc2)C(=O)C12OC(=O)c1ccccc12 (racemic)
[5]
  Activity: Active

## O=C1OC2(C(=O)N(c3ccccc3)C(=O)N2c2ccccc2)c2ccccc21 (racemic)
[1]
  Activity: Toxic
[2]
  Activity: Toxic

## CCc1cccc(CC)c1N1C(=O)N(CC)C2(OC(=O)c3ccccc32)C1=O (racemic)
[3]
  Activity: Active

## CCc1ccc(N2C(=O)N(C3CC3)C3(OC(=O)c4ccccc43)C2=O)cc1 (racemic)
[5]
  Activity: Active
